Assay results published in patent US20250368648A1, “MULTI-CYCLIC IRAK AND FLT3 INHIBITING COMPOUNDS AND USES THEREOF” (CHILDREN'S HOSPITAL MEDICAL CENTER, priority 2022, published 2025).
pKd: −log10 of the molar value.

Tests used:
FLT3 D835V = target: T1, FLT3 D835V (Homo sapiens, UniProt P36888, D835V); assay: DiscoverX KINOMEscan competition binding, FLT3 D835V; conditions: no ATP
T1 construct: purchased DiscoverX (KINOMEscan); host or cells: E. coli (T7 phage) or HEK-293
T1 sequence (P36888 27-993 D835V): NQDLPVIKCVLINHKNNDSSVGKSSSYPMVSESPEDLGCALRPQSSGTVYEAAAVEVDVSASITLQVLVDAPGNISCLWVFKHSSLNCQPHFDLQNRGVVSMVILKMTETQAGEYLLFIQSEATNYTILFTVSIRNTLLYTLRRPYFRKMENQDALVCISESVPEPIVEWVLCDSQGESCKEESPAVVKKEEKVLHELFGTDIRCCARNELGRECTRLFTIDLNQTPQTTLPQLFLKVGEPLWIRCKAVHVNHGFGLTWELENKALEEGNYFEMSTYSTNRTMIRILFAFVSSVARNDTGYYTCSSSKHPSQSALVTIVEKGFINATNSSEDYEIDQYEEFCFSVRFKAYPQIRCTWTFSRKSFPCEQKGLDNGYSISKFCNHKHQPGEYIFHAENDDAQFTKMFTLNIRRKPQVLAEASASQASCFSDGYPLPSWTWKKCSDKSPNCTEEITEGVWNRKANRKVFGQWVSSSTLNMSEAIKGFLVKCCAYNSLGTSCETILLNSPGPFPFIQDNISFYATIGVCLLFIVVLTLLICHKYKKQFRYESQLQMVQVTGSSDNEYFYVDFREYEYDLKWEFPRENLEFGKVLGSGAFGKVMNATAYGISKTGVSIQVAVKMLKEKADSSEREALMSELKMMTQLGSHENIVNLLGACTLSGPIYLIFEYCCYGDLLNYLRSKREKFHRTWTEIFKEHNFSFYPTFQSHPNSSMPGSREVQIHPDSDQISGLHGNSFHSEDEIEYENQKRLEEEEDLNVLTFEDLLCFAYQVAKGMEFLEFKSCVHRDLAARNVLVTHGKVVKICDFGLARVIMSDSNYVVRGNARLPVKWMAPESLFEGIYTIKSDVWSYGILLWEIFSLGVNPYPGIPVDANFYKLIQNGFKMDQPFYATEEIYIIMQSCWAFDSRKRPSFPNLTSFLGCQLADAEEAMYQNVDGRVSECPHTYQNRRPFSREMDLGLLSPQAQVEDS
Source text: (§1) Kinase binding data were obtained for various exemplary compounds prepared according to Examples 2-15 using the DiscoverX KINOMEscan® active site-directed competition binding site-directed assay protocol described below. […] As a result, the data report thermodynamic interaction affinities (Kd values), rather than IC50 values that are dependent on ATP concentrations. The assay uses a DNA-tagged version of the protein kinase, and an immobilized ligand bound to a solid support. Compounds that directly or indirectly prevent kinase binding to the immobilized ligand reduce the amount of kinase captured on the solid support, which is detected using an ultra-sensitive qPCR method. Affinity constants reported from the assay have been reported to be independent of the immobilized ligand used that is coupled to the solid support (See supplemental information in Fabian, M. A. et. al., (2005) Nat. […] Wodicka, L. […] Biol. 17, 1241-1249.) Kinase-tagged T7 phage strains were prepared in an E. coli host derived from the BL21 strain. E. coli were grown to log-phase and infected with T7 phage and incubated with shaking at 32° C. until lysis. […] Kds were determined using an 11-point 3-fold compound dilution series with three DMSO control points. […] The kinase concentration in the eluates was measured by qPCR. Binding constants (Kds) were calculated with a standard dose-response curve using the Hill equation. […]

FLT3 ITD = target: T2, FLT3 ITD (Homo sapiens, UniProt P36888); assay: DiscoverX KINOMEscan competition binding, FLT3 ITD; conditions: no ATP
T2 construct: fused on or other part: DNA tag for qPCR read-out (T7 phage fusion, or DNA-tagged kinase made in HEK-293 cells)
T2 sequence (P36888 1-993): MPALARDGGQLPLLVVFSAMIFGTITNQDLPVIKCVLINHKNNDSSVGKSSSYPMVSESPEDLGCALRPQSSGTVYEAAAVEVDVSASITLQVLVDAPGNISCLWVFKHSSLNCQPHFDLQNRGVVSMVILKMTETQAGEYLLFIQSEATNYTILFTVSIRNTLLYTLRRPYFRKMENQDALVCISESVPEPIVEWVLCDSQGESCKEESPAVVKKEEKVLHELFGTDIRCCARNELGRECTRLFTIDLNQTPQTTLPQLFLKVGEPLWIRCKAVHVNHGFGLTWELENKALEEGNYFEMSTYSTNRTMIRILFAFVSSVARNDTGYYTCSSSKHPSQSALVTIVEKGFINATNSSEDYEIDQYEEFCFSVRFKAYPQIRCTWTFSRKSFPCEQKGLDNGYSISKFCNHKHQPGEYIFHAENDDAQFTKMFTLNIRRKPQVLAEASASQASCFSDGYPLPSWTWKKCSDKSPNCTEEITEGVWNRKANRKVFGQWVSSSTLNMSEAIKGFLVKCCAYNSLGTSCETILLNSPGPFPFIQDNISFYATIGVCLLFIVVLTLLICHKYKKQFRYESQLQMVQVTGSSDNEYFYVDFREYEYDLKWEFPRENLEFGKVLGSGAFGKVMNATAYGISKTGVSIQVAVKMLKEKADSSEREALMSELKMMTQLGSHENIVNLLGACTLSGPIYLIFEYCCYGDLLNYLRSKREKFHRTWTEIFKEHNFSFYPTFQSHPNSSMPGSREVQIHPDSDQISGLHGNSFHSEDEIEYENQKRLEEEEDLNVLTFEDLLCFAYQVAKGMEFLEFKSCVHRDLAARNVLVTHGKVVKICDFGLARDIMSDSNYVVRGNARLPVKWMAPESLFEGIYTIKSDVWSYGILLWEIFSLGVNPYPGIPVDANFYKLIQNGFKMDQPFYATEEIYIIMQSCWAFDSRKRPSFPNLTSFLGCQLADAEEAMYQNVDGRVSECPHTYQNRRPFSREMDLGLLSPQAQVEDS
Source text: as §1

`COc1cc2ncc(-c3nc(N[C@H]4CNCC[C@@H]4F)c(F)cc3F)n2nc1C1CCC1` [Compound 15a, 6-(6-cyclobutyl-7-methoxyimidazo[1,2-b]pyridazin-3-yl)-3,5-difluoro-N-((3S,4S)-4-fluoropiperidin-3-yl)pyridin-2-amine] was tested, and the pKd (FLT3 D835V) was > 9.77 and the pKd (FLT3 ITD) was 9.37.
